Results published in ChEMBL document CHEMBL6182894, “Design, synthesis, and biological evaluation of quinolinyl-ureido-phenyl-hydrazide derivatives and quinolinyl-hydrazide derivatives as anticancer agents targeting Nur77-mediated ferroptosis” (Eur J Med Chem, 2025).
pIC50, pKd: −log10 of the molar value.

Columns and labels:
MCF7 [1] = assay: cells; settings: Homo sapiens, MCF7, 24 h
Description: Antiproliferative activity against human MCF7 cells assessed as inhibition of cell growth incubated for 24 hrs by MTT assay

HepG2 = assay: Antiproliferative activity against human HepG2 cells assessed as inhibition of cell growth by MTT assay
HCT-116 = assay: Antiproliferative activity against human HCT-116 cells assessed as inhibition of cell growth by MTT assay
[2] = Cytotoxicity in human MCF-10A cells assessed as inhibition of cell growth by MTT assay; assay type: toxicity, cell-based
MCF7 [3] = assay: Antiproliferative activity against human MCF7 cells assessed as inhibition of cell growth at 50 uM by MTT assay relative to control; assay type: functional
[4] = Cytotoxicity in HaCaT cells assessed as inhibition of cell growth by MTT assay; assay type: toxicity, cell-based; settings: human
[5] = target: Nuclear receptor subfamily 4immunitygroup A member 1 (Homo sapiens, UniProt P22736); assay: Binding affinity to Nur77 LB domain (unknown origin) assessed as dissociation constant up to 100 uM by fluorescence titration assay
Sequence of Nuclear receptor subfamily 4immunitygroup A member 1 (P22736 whole entry, the tested form may be a part): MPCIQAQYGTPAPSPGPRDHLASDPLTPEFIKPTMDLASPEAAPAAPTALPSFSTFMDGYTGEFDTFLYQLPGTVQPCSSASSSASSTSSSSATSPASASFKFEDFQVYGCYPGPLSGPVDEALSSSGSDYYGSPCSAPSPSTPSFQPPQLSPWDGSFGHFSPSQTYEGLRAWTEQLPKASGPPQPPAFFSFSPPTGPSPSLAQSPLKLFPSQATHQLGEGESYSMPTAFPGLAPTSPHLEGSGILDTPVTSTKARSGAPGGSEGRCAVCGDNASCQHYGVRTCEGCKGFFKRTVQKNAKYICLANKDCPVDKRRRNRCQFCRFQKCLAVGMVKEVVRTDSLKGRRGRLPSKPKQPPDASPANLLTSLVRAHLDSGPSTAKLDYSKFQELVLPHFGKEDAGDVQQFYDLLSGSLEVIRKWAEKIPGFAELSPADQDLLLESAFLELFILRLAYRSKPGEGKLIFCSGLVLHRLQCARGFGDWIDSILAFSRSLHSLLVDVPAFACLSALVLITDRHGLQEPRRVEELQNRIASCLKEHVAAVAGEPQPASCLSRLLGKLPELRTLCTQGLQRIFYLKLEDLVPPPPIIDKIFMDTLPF

MDA-MB-231 = assay: cells; settings: Homo sapiens, MDA-MB-231, 24 h
Description: Antiproliferative activity against human MDA-MB-231 cells assessed as inhibition of cell growth incubated for 24 hrs by MTT assay

T47D = assay: cells; settings: Homo sapiens, 24 h
Description: Antiproliferative activity against human T47D cells assessed as inhibition of cell growth incubated for 24 hrs by MTT assay

Structure (SMILES)	inhibition at 50 µM (MCF7 [3])	further results
O=C(Nc1ccc(C(=O)N/N=C/c2cccc(Cl)c2)cc1)Nc1cccc2ncccc12	76.2%	pIC50 (MCF7 [1]): 4.94; pIC50 (HepG2): 4.81; pIC50 (HCT-116): 4.97; pIC50 [2]: < 4.30; pIC50 [4]: < 4.30
O=C(N/N=C/c1ccccc1)c1cccc2ncccc12	69.3%	
O=C(Nc1ccc(C(=O)N/N=C/c2ccc(F)cc2F)cc1)Nc1ccc2ncccc2c1	23.2%	
Cc1cccc(/C=N/NC(=O)c2ccc(NC(=O)Nc3cccc4ncccc34)cc2)c1	68.6%	
O=C(N/N=C/c1ccc(Cl)cc1)c1ccc2ncccc2c1	79%	pIC50 (MCF7 [1]): 4.76; pIC50 (HepG2): 4.86; pIC50 (HCT-116): 4.64; pIC50 [2]: < 4.30; pIC50 [4]: < 4.30
O=C(O)c1ccc(/C=N/NC(=O)c2ccc3ncccc3c2)cc1	48%	
Cc1cc(C)cc(/C=N/NC(=O)c2ccc3ncccc3c2)c1	55.2%	
Cc1ccc(/C=N/NC(=O)c2ccc3ncccc3c2)cc1	76.8%	pIC50 (MCF7 [1]): 4.65; pIC50 (HepG2): 4.55; pIC50 (HCT-116): 4.60; pIC50 [2]: 4.39; pIC50 [4]: 4.40
O=C(Nc1ccc(C(=O)N/N=C/c2ccnc3ccccc23)cc1)Nc1ccc2ncccc2c1	1.11%	
Cc1ccc(F)cc1/C=N/NC(=O)c1ccc2ncccc2c1	73.5%	
CCC/C=N/NC(=O)c1ccc2ncccc2c1	65.1%	
O=C(N/N=C/c1cccs1)c1ccc2ncccc2c1	64.9%	
Cc1cc(C)cc(/C=N/NC(=O)c2cccc3ncccc23)c1	68.5%	
O=C(N/N=C/c1ccco1)c1ccc2ncccc2c1	41.8%	
O=C(N/N=C/c1ccc([N+](=O)[O-])cc1)c1ccc2ncccc2c1	63.2%	
Cc1cccc(/C=N/NC(=O)c2ccc3ncccc3c2)c1	50.1%	
O=C(N/N=C/c1cccs1)c1cccc2ncccc12	45.7%	
CCOc1ccccc1-n1c(C(C)N2CCN(C(=O)COc3ccc(Cl)cc3)CC2)nc2ccccc2c1=O (stereo not given) [ERASTIN]		pIC50 (MCF7 [1]): 4.70; pIC50 (HepG2): < 4.52; pIC50 (HCT-116): < 4.52
CCC/C=N/NC(=O)c1ccc(NC(=O)Nc2ccc3ncccc3c2)cc1	46.6%	

Structure (SMILES)	inhibition at 50 µM (MCF7 [3])	further results
O=C(N/N=C/c1ccnc2ccccc12)c1ccc2ncccc2c1	55.3%	
O=C(N/N=C/c1ccc(F)cc1F)c1ccc2ncccc2c1	70.8%	
CCCCCCCC(=O)c1c(O)cc(O)cc1CC(=O)OCC [CYTOSPORONE B]		pKd [5]: 4.81
O=C(Nc1ccc(C(=O)N/N=C/c2c[nH]c3ccccc23)cc1)Nc1cccc2ncccc12	30.2%	
COc1cccc(/C=N/NC(=O)c2ccc(NC(=O)Nc3cccc4ncccc34)cc2)c1	59%	
O=C(Nc1ccc(C(=O)N/N=C/c2cccs2)cc1)Nc1ccc2ncccc2c1	15.1%	
COc1ccc(/C=N/NC(=O)c2ccc3ncccc3c2)c(O)c1	71.2%	
Cc1ccc(/C=N/NC(=O)c2cccc3ncccc23)cc1	60.5%	
CC/C(=C(\c1ccccc1)c1ccc(OCCN(C)C)cc1)c1ccccc1 [TAMOXIFEN]		pIC50 (MCF7 [1]): 5.11; pIC50 (MDA-MB-231): 4.68
Cc1ccc(F)cc1/C=N/NC(=O)c1ccc(NC(=O)Nc2cccc3ncccc23)cc1	68.3%	
COc1ccc(/C=N/NC(=O)c2cccc3ncccc23)cc1	67.9%	
O=C(Nc1ccc(C(=O)N/N=C/c2ccc(Cl)cc2)cc1)Nc1ccc2ncccc2c1	66.4%	
O=C(Nc1ccc(C(=O)N/N=C/c2ccco2)cc1)Nc1ccc2ncccc2c1	56.2%	
COc1ccc(/C=N/NC(=O)c2ccc(NC(=O)Nc3ccc4ncccc4c3)cc2)c(O)c1	1.01%	
O=C(N/N=C/c1ccco1)c1cccc2ncccc12	50.9%	
COc1cccc(/C=N/NC(=O)c2ccc(NC(=O)Nc3ccc4ncccc4c3)cc2)c1	1.99%	
O=C(N/N=C/c1ccc(F)cc1)c1ccc2ncccc2c1	60.1%	
COc1ccc(/C=N/NC(=O)c2ccc(NC(=O)Nc3ccc4ncccc4c3)cc2)cc1OC	1.26%	
O=C(N/N=C/c1cc(Cl)nc2ccccc12)c1ccc2ncccc2c1	44.1%	

Structure (SMILES)	inhibition at 50 µM (MCF7 [3])	further results
O=C(N/N=C/c1ccccc1)c1ccc2ncccc2c1	64.9%	
CCC/C=N/NC(=O)c1cccc2ncccc12	79.2%	pIC50 (MCF7 [1]): 5.17; pIC50 (HepG2): 5.56; pIC50 (HCT-116): 5.66; pIC50 [2]: 4.40; pIC50 [4]: 4.34
O=C(Nc1ccc(C(=O)N/N=C/c2ccc(F)cc2F)cc1)Nc1cccc2ncccc12	73.3%	
COc1ccc(/C=N/NC(=O)c2ccc(NC(=O)Nc3cccc4ncccc34)cc2)cc1	72.3%	
Cc1cc(C)cc(/C=N/NC(=O)c2ccc(NC(=O)Nc3ccc4ncccc4c3)cc2)c1	19%	
O=C(Nc1ccc(C(=O)N/N=C/c2ccc(Cl)cc2)cc1)Nc1cccc2ncccc12	53.4%	
COc1ccc(/C=N/NC(=O)c2ccc(NC(=O)Nc3ccc4ncccc4c3)cc2)cc1	37.7%	
O=C(N/N=C/c1cccc(Cl)c1)c1cccc2ncccc12	56.9%	
O=C(Nc1ccc(C(=O)N/N=C/c2ccc(Cl)cc2Cl)cc1)Nc1ccc2ncccc2c1	70.2%	
O=C(Nc1ccc(C(=O)N/N=C/c2cc(Cl)ccc2Cl)cc1)Nc1ccc2ncccc2c1	75.7%	pIC50 (T47D): 5.06; pIC50 (MCF7 [1]): 5.32; pIC50 (HepG2): 5.03; pIC50 (HCT-116): 5.08; pIC50 [2]: < 4.30; pIC50 [4]: 4.40
O=C(Nc1ccc(C(=O)N/N=C/c2cc(Cl)nc3ccccc23)cc1)Nc1ccc2ncccc2c1	65.4%	
Cc1ccccc1/C=N/NC(=O)c1cccc2ncccc12	65.3%	
O=C(Nc1ccc(C(=O)N/N=C/c2ccc(Cl)cc2Cl)cc1)Nc1cccc2ncccc12	74.6%	
COc1cc(/C=N/NC(=O)c2ccc(NC(=O)Nc3ccc4ncccc4c3)cc2)cc(OC)c1	56.4%	
COc1ccc(/C=N/NC(=O)c2ccc3ncccc3c2)cc1	66.2%	
O=C(N/N=C/c1cc(Cl)ccc1Cl)c1ccc2ncccc2c1	64.7%	
CC(C)c1ccc(/C=N/NC(=O)c2ccc(NC(=O)Nc3cccc4ncccc34)cc2)cc1	65.9%	
Cc1cccc(/C=N/NC(=O)c2ccc(NC(=O)Nc3ccc4ncccc4c3)cc2)c1	68.2%	
